Source: patent US20100056622A1, “Methods of Using Ramelteon to Treat Patients Suffering from a Variety of Neurodegenerative Diseases” (priority 2008, published 2010)

How the values were obtained:
melatonin-2 receptor = molecular target: T1, melatonin-2 receptor (Homo sapiens, UniProt P49286); conditions: cited from earlier work
T1 sequence (P49286 1-362): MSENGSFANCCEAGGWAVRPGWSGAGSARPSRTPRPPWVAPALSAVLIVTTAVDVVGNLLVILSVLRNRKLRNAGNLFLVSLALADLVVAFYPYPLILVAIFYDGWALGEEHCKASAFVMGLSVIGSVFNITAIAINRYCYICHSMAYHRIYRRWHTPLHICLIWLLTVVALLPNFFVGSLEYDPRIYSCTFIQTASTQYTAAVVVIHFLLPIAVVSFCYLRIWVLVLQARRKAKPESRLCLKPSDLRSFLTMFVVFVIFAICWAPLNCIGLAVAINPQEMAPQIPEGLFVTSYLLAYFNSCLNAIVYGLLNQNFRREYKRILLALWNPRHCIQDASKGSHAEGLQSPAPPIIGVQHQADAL

[1] = tested on: mouse cerebellar granule cells; conditions: cited from earlier work
[2] = tested on: patient with Probable Parkinson's Disease Dementia; assay: Case report Example 2: ramelteon in a patient with Probable Parkinson's Disease Dementia (person); format: in vivo, human; conditions: after 2 weeks
Description: A person with a 10 year history of Probable Parkinson's Disease Dementia was treated with ramelteon as follows. The patient presented for treatment was experiencing dementia EDS, REM behavior disorder (i.e., RBD, manifest in acting out their dreams while asleep), and symptoms of Parkinson's disease (e.g., bradykinesia, rigidity, resting tremor, and postural instability). […] After 2 weeks of treatment with ramelteon, 8 mg each night at bedtime, scores had improved on the ESS from 19 to 16, DRS-2 (DRS-2 Conceptualization score) improved from 35 to 38, Memory from 24 to 25, Total from 138 to 141, and Trails (Trails B 68 to 60, Trails B-Trails A 36 to 28). Thus, treatment with ramelteon led to demonstrable improvement in excessive daytime sleepiness, concept formation (i.e., similitudes and differences), memory (i.e., spontaneous recall, factual knowledge, and recognition), overall cognition, and measures of executive function.

[3] = tested on: liver function after hemorrhagic shock and reperfusion; conditions: rats; cited from earlier work
melatonin-1 receptor = melatonin-1 receptor (Homo sapiens, UniProt P48039); conditions: cited from earlier work
melatonin-1 receptor, sequence (P48039 whole entry): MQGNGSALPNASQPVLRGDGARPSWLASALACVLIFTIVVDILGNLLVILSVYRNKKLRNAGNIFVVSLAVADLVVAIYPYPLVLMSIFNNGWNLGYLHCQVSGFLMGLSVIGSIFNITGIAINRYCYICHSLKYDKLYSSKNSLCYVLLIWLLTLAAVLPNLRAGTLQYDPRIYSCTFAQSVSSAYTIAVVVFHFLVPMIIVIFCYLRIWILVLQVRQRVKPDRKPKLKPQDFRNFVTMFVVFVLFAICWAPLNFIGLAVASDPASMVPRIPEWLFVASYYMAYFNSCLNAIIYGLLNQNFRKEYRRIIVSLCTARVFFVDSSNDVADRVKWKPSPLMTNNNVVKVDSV

[4] = tested on: patient with Probable Dementia with Lewy Bodies; assay: Case report Example 1: ramelteon in a patient with Probable Dementia with Lewy Bodies; format: in vivo, human; conditions: 2 week follow-up
Description: A person with a 4 year history of Probable Dementia with Lewy Bodies was treated with ramelteon as follows. The patient presented for treatment was experiencing poor sleep (i.e., interval insomnia with only 3-4 hours of sleep at night), fatigue, weight loss, poor concentration, anhedonia, irritability, social withdrawal, but no depressive mood or depressive cognitions. The patient would nap for an hour in the afternoons, consistent with Excessive Daytime Somnolence (EDS), nocturnal insomnia, or dopamine agonist therapy. They admitted to some anxiety daily in the afternoons lasting up to an hour, but had no somatic symptoms with this. Confusion was mild, but occurred once daily, and they had hallucinated only once, 6 weeks previously. There was significant nocturnal incontinence associated with the insomnia, with 4 or more episodes per night. The Neuropsychiatric Inventory Questionnaire (NPI-Q) was administered with the result being a score of 11 (delusions 1, agitation 2, irritability 1, nighttime behaviors 6, appetite 1). The […] al. Apathy Scale was also administered with the result being a score of 31. Ramelteon was administered beginning at 8 mg at bedtime and increased after 3 days to 16 mg by mouth each night at bedtime. At a 2 week follow-up, the patient began sleeping 7 hours each night, with only 2 episodes of incontinence at night.

[5] = tested on: patient with Probable Parkinson's Disease Dementia; assay: Case report Example 3: ramelteon in a patient with Parkinson Disease and Probable Parkinson's Disease Dementia (person); format: in vivo, human; conditions: 10 weeks
Description: A person with an 18 year history of Parkinson Disease with subsequent development of Probable Parkinson's Disease Dementia was treated with ramelteon. The patient presented was experiencing dementia (i.e., memory loss, inattention, and dysexecutive syndrome), initial and interval insomnia, and typical features of Parkinson's disease (i.e., bradykinesia, rigidity, resting tremor, and postural instability). The patient was started on ramelteon, 8 mg each night at bedtime, and was seen again 10 weeks later. DRS-2 Initiation (i.e., categorical naming reflecting temporal lobe function) improved from a score of 31 to 34, Controlled Oral Word Association Test S Subtest (i.e., naming reflecting frontal lobe function) from 14 to 17, CLOX 1 (i.e., reflecting executive function) from 6 to 8, and ADCS-ADL disability (i.e., reflecting ability to perform activities of daily living) from 43 to 47. Thus, treatment with ramelteon was associated with improvements in temporal and frontal lobe—related naming, executive function, and overall ability to cognitively function.

## CCC(=O)NCC[C@@H]1CCc2ccc3c(c21)CCO3 [ramelteon, (S)—N-[2-(1,6,7,8-tetrahydro-2H-indeno-[5,4-b]furan-8-yl)ethyl]propionamide]
melatonin-2 receptor
  agonist potency relative to melatonin: more potent at these sites than melatonin itself
[1]
  concentrations of BDNF in neurons: increased concentrations of BDNF in neurons
[2]; 8 mg at bedtime, before treatment 24
  DRS-2 Memory score: 25
[2]; 8 mg at bedtime, before treatment 35
  DRS-2 Conceptualization score: 38
[2]; 8 mg at bedtime, before treatment 36
  Trails B-Trails A: 28
[2]; 8 mg at bedtime, before treatment 68
  Trails B: 60
[2]; 8 mg at bedtime, before treatment 138
  DRS-2 Total score: 141
[2]; 8 mg each night at bedtime, before treatment 19
  Epworth Sleepiness Scale (ESS) score: 16
[3]
  recovery of the liver after reperfusion: improved recovery of the liver after reperfusion
melatonin-1 receptor
  agonist potency relative to melatonin: more potent at these sites than melatonin itself
[4]
  MMSE scores: did not show a change
  afternoon anxiety: no longer of concern
  anhedonia: absent
  appetite: improved
  confusional episodes, intensity: reduced in intensity
  hallucinations: continued in remission
  irritability: markedly better
  social withdrawal: absent
[4]; 8 mg then 16 mg by mouth at bedtime, before treatment 3-4 hours
  sleep each night: 7 h
[4]; before treatment 1
  NPI-Q appetite: 1
  NPI-Q delusions: 0
[4]; before treatment 2
  NPI-Q agitation: 0
[4]; before treatment 4 or more episodes per night
  episodes of incontinence at night: 2 episodes
[4]; before treatment 6
  NPI-Q nighttime behaviors: 1
[4]; before treatment 11
  NPI-Q score (total): 2
[4]; before treatment 31
  Apathy Scale (Starkstein et al.) score: 37
[4]; before treatment once daily
  confusional episodes, frequency: half as frequent
[5]; 8 mg at bedtime, before treatment 6
  CLOX 1: 8
[5]; 8 mg at bedtime, before treatment 14
  Controlled Oral Word Association Test S Subtest: 17
[5]; 8 mg at bedtime, before treatment 43
  ADCS-ADL activities of daily living score: 47
[5]; 8 mg each night at bedtime, before treatment 31
  DRS-2 Initiation score: 34
